target: T1, mGluR2 receptor (metabotropic glutamate receptor 2) (Homo sapiens, UniProt Q14416); assay: mGluR2 potentiator screen (FLIPR, EC10-EC20 glutamate challenge); type: cell-based; conditions: geometric mean; read-out: mGluR 2 EC50 (geometric mean);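 note: HEK cells stably expressing human mGluR2 with GL15 G protein, Fluo-4 calcium fluorescence read on FLIPR, compounds added before an EC10-EC20 glutamate challenge to detect potentiation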
T1 construct: expressed in transfected cells
T1 sequence (Q14416 19-872, species assumed): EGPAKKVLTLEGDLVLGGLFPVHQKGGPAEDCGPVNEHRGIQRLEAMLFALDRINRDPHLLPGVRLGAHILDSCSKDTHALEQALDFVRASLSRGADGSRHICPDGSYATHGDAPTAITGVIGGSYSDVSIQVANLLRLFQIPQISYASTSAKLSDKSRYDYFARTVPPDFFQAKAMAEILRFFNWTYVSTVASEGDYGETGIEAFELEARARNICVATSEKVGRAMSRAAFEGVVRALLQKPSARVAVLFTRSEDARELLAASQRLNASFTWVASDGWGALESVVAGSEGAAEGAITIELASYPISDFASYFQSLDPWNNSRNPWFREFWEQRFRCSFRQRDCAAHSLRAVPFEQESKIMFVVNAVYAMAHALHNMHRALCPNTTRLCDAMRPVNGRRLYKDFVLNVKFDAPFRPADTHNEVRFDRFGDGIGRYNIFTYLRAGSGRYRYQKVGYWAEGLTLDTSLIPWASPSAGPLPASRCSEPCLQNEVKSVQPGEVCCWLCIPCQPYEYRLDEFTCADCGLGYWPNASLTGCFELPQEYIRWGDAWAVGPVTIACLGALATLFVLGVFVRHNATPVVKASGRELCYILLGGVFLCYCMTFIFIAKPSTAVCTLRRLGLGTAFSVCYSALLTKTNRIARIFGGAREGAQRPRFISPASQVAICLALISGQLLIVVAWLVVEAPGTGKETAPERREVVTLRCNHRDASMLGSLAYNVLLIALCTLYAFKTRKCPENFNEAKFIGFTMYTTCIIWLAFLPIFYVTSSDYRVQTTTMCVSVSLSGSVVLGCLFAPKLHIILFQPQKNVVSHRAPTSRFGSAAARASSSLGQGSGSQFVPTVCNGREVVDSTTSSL

Compound | EC50
CC1CN(Cc2ccc(OCCC3CCCC3)cc2)C(=O)O1 (centres unmarked) [Example 92] | 0.0108 µM
Cc1nc(-c2ccccc2)ncc1COc1ccc(CN2CC(C)OC2=O)cc1 (centres unmarked) [Example 133] | 0.12 µM
C[C@@H]1CN(Cc2ccc(OCCCc3ccccc3)cc2)C(=O)O1 [Example 204, (5R)-5-methyl-3-[4-(3-phenylpropoxy)benzyl]-1,3-oxazolidin-2-one] | 0.0248 µM
CC1(C)COC(=O)N(Cc2ccc(OCC3CCC3)cc2)C1 [Example 15] | 0.935 µM
C[C@@H]1CN(Cc2ccc(-c3ccc(C(F)(F)F)cc3F)c(F)c2)C(=O)O1 [Example 292] | 0.056 µM
Cc1cc(CN2C[C@@H](C)OC2=O)ccc1Oc1ncc(Cl)cc1Cl [Example 296, (5R)-3-{4-[(3,5-Dichloropyridin-2-yl)oxy]-3-methylbenzyl}-5-methyl-1,3-oxazolidin-2-one] | 0.0455 µM
C[C@@H]1CN(Cc2ccc(OCCCOc3ccc(F)cc3)cc2)C(=O)O1 [Example 206] | 0.0299 µM
C[C@@H]1CN(Cc2ccc(-c3ccc(C(F)(F)F)cc3F)nc2)C(=O)O1 [Example 258] | 0.205 µM
Cc1ccc(C(C)Oc2ccc(CN3CC(C)OC3=O)cc2)cc1 (centres unmarked) [Example 125] | 0.0241 µM
COc1ccc(-c2ccc(CN3C[C@@H](C)OC3=O)cc2)cc1OC [Example 190] | 0.676 µM
CC1CN(Cc2ccc(OCc3ccc(Cl)cc3)cc2)C(=O)O1 (centres unmarked) [Example 89] | 0.0692 µM
C[C@@H]1CN(Cc2ccc(-c3ccccc3OC(F)(F)F)cc2)C(=O)O1 [Example 164] | < 0.00732 µM
CC(C)Oc1ccc(-c2ccc(CN3C[C@@H](C)OC3=O)cc2)c(Cl)c1 [Example 280] | < 0.0154 µM
C[C@@H]1CN(Cc2ccc(OCC3CCC(NC4CCC4)CC3)cc2)C(=O)O1 (stereo partly drawn) [Example 297, (5R)-3-(4-{[4-(Cyclobutylamino)cyclohexyl]methoxy}benzyl)-5-methyl-1,3-oxazolidin-2-one] | 1.99 µM
CC1CN(Cc2ccc(OC3Cc4ccccc4C3)cc2)C(=O)O1 (centres unmarked) [Example 126] | 0.0831 µM
C[C@@H]1CN(Cc2ccc3c(c2)Cc2ccccc2-3)C(=O)O1 [Example 185] | 0.625 µM
C[C@@H]1CN(Cc2ccc(-c3ccc(Cl)cc3F)cc2)C(=O)O1 [Example 256] | < 0.0398 µM
C[C@@H]1CN(Cc2ccc(-c3ccc(F)cc3F)c(F)c2)C(=O)O1 [Example 288] | 0.0369 µM
C[C@@H]1CN(Cc2ccc(-c3cnc4ccccc4c3)cc2)C(=O)O1 [Example 181] | 0.286 µM
CCC(C)CCOc1ccc(CN2C[C@@H](C)OC2=O)cc1 (some centres unmarked) [Example 212] | 0.0778 µM
O=C1OC(c2ccccc2)CN1Cc1ccc(OCC2CCCCC2)cc1 (centres unmarked) [Example 7] | 0.22 µM

Compound | EC50
Cc1cc(CN2C[C@@H](C)OC2=O)cc(C)c1OCc1ccccc1 [Example 184] | 0.964 µM
CC1CN(Cc2ccc(OCc3ccc(C#N)cc3)cc2)C(=O)O1 (centres unmarked) [Example 124] | 0.827 µM
CC1CN(Cc2ccc(OCc3cccc(C#N)c3)cc2)C(=O)O1 (centres unmarked) [Example 129] | 0.155 µM
COc1ccc(C(C)C)cc1-c1ccc(CN2C[C@@H](C)OC2=O)cn1 [Example 282] | 1.47 µM
CC1CN(Cc2ccc(OC(C)Cc3ccccc3)cc2)C(=O)O1 (centres unmarked) [Example 122] | 0.0407 µM
CCN1CCN(Cc2ccc(OC(C)C3CCCCC3)cc2)C(=O)C1 (centres unmarked) [Example 188, 1-[4-(1-cyclohexylethoxy)benzyl]-4-ethylpiperazin-2-one] | 0.725 µM
CC(C)Oc1ccc(-c2ccc(CN3C[C@@H](C)OC3=O)cn2)c(Cl)c1 [Example 278] | 0.164 µM
CC1(C)COC(=O)N(Cc2ccc(OC3CCCCC3)cc2)C1 [Example 43] | 0.336 µM
C[C@@H]1CN(Cc2ccc(-c3ccc(F)cc3Cl)cc2)C(=O)O1 [Example 274] | 0.0313 µM
CC(Oc1ccc(CN2C(=O)OC[C@@H]3CCCC[C@@H]32)cc1)C1CCCCC1 (some centres unmarked) [Example 37] | 2.02 µM
CCC(C)CCOc1ccc(CN2CC(C)OC2=O)cc1 (centres unmarked) [Example 94] | 0.042 µM
C[C@@H]1CN(Cc2ccc(OCC3CCCCC3)c(Cl)c2)C(=O)O1 [Example 286, (5R)-3-[3-chloro-4-(cyclohexylmethoxy)benzyl]-5-methyl-1,3-oxazolidin-2-one] | 0.0325 µM
CC(Oc1ccc(CN2CC(C)(C)COC2=O)cc1)c1ccccc1 (centres unmarked) [Example 45] | 0.213 µM
COc1c(-c2ccc(F)cc2)ccc(CN2C[C@@H](C)OC2=O)c1F [Example 253] | 0.135 µM
Cc1ccc(Cl)cc1-c1ccc(CN2C[C@@H](C)OC2=O)cn1 [Example 259] | 1.46 µM
CC(Oc1ccc(CN2CCN(CCCC(F)(F)F)CC2=O)cc1)C1CCCCC1 (centres unmarked) [Example 218] | 0.681 µM
CC(Oc1ccc(CN2CCN(C(C)CC3CC3)CC2=O)cc1)C1CCCCC1 (centres unmarked) [Example 219] | 0.697 µM
CCCOc1ccc(CN2CC(c3ccccc3)OC2=O)cc1 (centres unmarked) [Example 3] | 0.361 µM
CC1CN(Cc2ccc(O[C@H](C)c3ccccc3)cc2)C(=O)O1 (some centres unmarked) [Example 139] | 0.0797 µM
C[C@@H]1CN(Cc2ccc(-c3cnc4ccccc4c3)c(F)c2)C(=O)O1 [Example 294] | 0.327 µM
C[C@@H]1CN(Cc2ccc(-c3ccc(C(F)(F)F)cc3)nc2)C(=O)O1 [Example 265] | 1.1 µM

Compound | EC50
CCCOc1ccc(CN2C(=O)O[C@H](c3ccccc3)[C@@H]2C)cc1 [Example 23] | 0.887 µM
CC1(C)CN(Cc2ccc(-c3ccc(F)cc3F)cc2)C(=O)O1 [Example 314] | 0.018 µM
C[C@@H]1CN(Cc2ccc(-c3ccc(Cl)c(F)c3)cc2)C(=O)O1 [Example 237] | 0.112 µM
O=C1OC(c2ccccc2)CN1Cc1ccc(OCCC2CCCCC2)cc1 (centres unmarked) [Example 10] | 0.395 µM
C[C@@H]1CN(Cc2ccc(-c3ccc(OC(F)F)cc3)nc2)C(=O)O1 [Example 313] | 0.531 µM
CC1CN(Cc2ccc(OCc3nc4ccccc4n3C(C)C)cc2)C(=O)O1 (centres unmarked) [Example 97] | 0.823 µM
CC(Oc1ccc(CN2C[C@@H](C)OC2=O)cc1F)C1CCCCC1 (stereo partly drawn) [Example 230, (5R)-3-[4-(1-Cyclohexylethoxy)-3-fluorobenzyl]-5-methyl-1,3-oxazolidin-2-one] | < 0.0216 µM
CCC(CC)Oc1ccc(CN2CC(C)OC2=O)cc1 (centres unmarked) [Example 136] | 0.774 µM
CCOC(=O)c1cccc(-c2ccc(CN3C[C@@H](C)OC3=O)cc2)c1 [Example 169] | 0.049 µM
C[C@@H]1CN(Cc2ccc(-c3cc(C#N)ccc3Cl)cc2)C(=O)O1 [Example 231] | 0.683 µM
CC(Oc1ccc(CN2CCN(CCC(F)(F)F)CC2=O)cc1)C1CCCCC1 (centres unmarked) [Example 222] | 0.325 µM
COc1ccc(C(C)C)cc1-c1ccc(CN2C[C@@H](C)OC2=O)cc1 [Example 156] | < 0.0162 µM
C[C@@H]1CN(Cc2ccc(-c3cccc(F)c3F)c(F)c2)C(=O)O1 [Example 289] | 0.0937 µM
C[C@@H]1CN(Cc2ccc(OCC3CCCCC3)c(F)c2)C(=O)O1 [Example 227, (5R)-3-[4-(cyclohexylmethoxy)-3-fluorobenzyl]-5-methyl-1,3-oxazolidin-2-one] | 0.196 µM
C[C@@H]1CN(Cc2ccc(-c3ccc(C(F)(F)F)cc3F)cc2F)C(=O)O1 [Example 252] | 0.0293 µM
CCC1CN(Cc2ccc(-c3ccc(F)cc3F)cc2)C(=O)O1 (centres unmarked) [Example 315] | 0.0414 µM
CC1CN(Cc2ccc(OC(C)c3ccccc3)cc2)C(=O)O1 (centres unmarked) [Example 46] | 0.151 µM
CC1CN(Cc2ccc(OCCc3ccc(C#N)cc3)cc2)C(=O)O1 (centres unmarked) [Example 109] | 0.219 µM
Cc1cc(F)ccc1-c1ccc(CN2C[C@@H](C)OC2=O)cc1 [Example 159] | 0.0139 µM
CC(C)Oc1ccc(CN2CC(c3ccccc3)OC2=O)cc1 (centres unmarked) [Example 44] | 0.572 µM
C[C@@H]1CN(Cc2ccc(-c3ccc(C#N)cc3)cc2)C(=O)O1 [Example 191] | 0.166 µM

Compound | EC50
CC(C)COc1ccc(CN2C(=O)O[C@H](c3ccccc3)[C@@H]2C)cc1 [Example 26] | 0.542 µM
CC(Oc1ccc(CN2CC(c3ccccn3)OC2=O)cc1)C1CCCCC1 (centres unmarked) [Example 207] | 0.0635 µM
COc1cccc(CCOc2ccc(CN3CC(C)OC3=O)cc2)c1 (centres unmarked) [Example 105] | 0.217 µM
O=C1OC[C@@H]2CCCC[C@@H]2N1Cc1ccc(OC2CCCCC2)cc1 [Example 41] | 0.386 µM
C[C@H]1[C@@H](c2ccccc2)OC(=O)N1Cc1ccc(OCc2ccccn2)cc1 [Example 25] | 1.76 µM
CC(C)COc1ccc(CN2CC(C)OC2=O)cc1 (centres unmarked) [Example 20] | 0.979 µM
CC(Oc1ccc(CN2CC(c3ccccc3)OC2=O)cc1)C1CCCCC1 (centres unmarked) [Example 38] | 0.127 µM
Cc1cc(Cl)ccc1-c1ccc(CN2C[C@@H](C)OC2=O)cc1 [Example 236] | 0.049 µM
CC1CN(Cc2ccc(O[C@@H](C)c3ccccc3)cc2)C(=O)O1 (some centres unmarked) [Example 144] | 0.0848 µM
C[C@H]1[C@@H](c2ccccc2)OC(=O)N1Cc1ccc(OCCC2CCCCC2)cc1 [Example 30] | 0.987 µM
CC(C)Oc1ccc(-c2ccc(CN3C[C@@H](C)OC3=O)cc2)cc1F [Example 277] | 0.0531 µM
CC(Oc1ccc(CN2CC(c3ccncc3)OC2=O)cc1)C1CCCCC1 (centres unmarked) [Example 209] | 0.639 µM
C[C@@H]1CN(Cc2ccc(-c3ccc(F)cc3F)cc2F)C(=O)O1 [Example 249, (5R)-5-methyl-3-[(2′,3,4′-trifluorobiphenyl-4-yl)methyl]-1,3-oxazolidin-2-one] | < 0.0284 µM
C[C@@H]1CN(Cc2ccc(OCCC3CCCCC3)c(Cl)c2)C(=O)O1 [Example 287, (5R)-3-[3-chloro-4-(2-cyclohexylethoxy)benzyl]-5-methyl-1,3-oxazolidin-2-one] | 0.174 µM
CC1CN(Cc2ccc(OCc3ccc(F)cc3Cl)cc2)C(=O)O1 (centres unmarked) [Example 115] | 0.0718 µM
CC1CN(Cc2ccc(OCC3CCC3)cc2)C(=O)O1 (centres unmarked) [Example 14] | 0.178 µM
C[C@@H]1CN(Cc2ccc(-c3ccc(Cl)cc3Cl)cc2)C(=O)O1 [Example 273] | < 0.0401 µM
CC1CN(Cc2ccc(OCc3ccccc3F)cc2)C(=O)O1 (centres unmarked) [Example 112] | 0.138 µM
O=C1OCCCN1Cc1ccc(OCc2ccccc2)cc1 [Example 31] | 1.25 µM
Cc1cc(-c2ccc(CN3C[C@@H](C)OC3=O)cn2)ccc1F [Example 271] | 0.475 µM

From patent US20090137577A1, “HETEROCYCLIC COMPOUNDS” (Pfizer Inc., priority 2007, published 2009)
